From US7799813B2, “Salts of substituted 5-membered azacycle and use thereof in the treatment of diseases related to protein aging” (Beijing Molecule Science and Technology Co., Ltd., priority 2006, dated 2010)

Columns and labels:
[1] = test system: AGE-BSA-collagen cross-links; assay: Elisa screening experiment on the breaking of AGE-BSA collagen cross-links; format: biochemical, rat; conditions: 37° C., 16 hours, OD 450 nm, averages of more than three screening results
Procedure: AGE cross-links were prepared in vitro by cross-linking AGE-BSA to rat tail tendon collagen-coated 96 well microtiter plates. ELISA method was used to evaluate the breaking effect of the compounds on AGE cross-links.
Normal Wister rats (body weight 200±20 g) were sacrificed acutely, then the tails were excised, and tail collagen was prepared at a temperature of 4° C. as follows: tail tendon collagen fibrils were taken out, washed with physiological saline, peeled off non-collagen fibril tissue, rinsed with distilled deionized water 3 times, cut into pieces, and immersed in 0.1% acetic acid at 4° C. for one week during which the immersion liquid was shaken frequently. Finally, the immersion liquid was subjected to a centrifuge treatment at 8000 G for 30 minutes, and supernatant collagen solution was collected. After dilution, protein content was measured. 96 well microtiter plates (Costar) were full-well coated with the collagen solution in an amount of 70 μg/well at 4° C. for 24 hours, then the coating solution was discarded. The plates were dried in air under sterile condition, coated with a fresh-keeping film, and finally stored at 4° C. for use.
A solution containing 50 mg/ml of bovine serum albumin BAS (V) (Roch) and 0.5M of glucose in 0.2M PBS (pH 7.4) was incubated at 37° C. under sterile condition for 3-4 months, to thereby form glycosylated BSA, i.e. BSA-AGE. At the same time, non-glycosylated BSA was prepared with glucose-free BSA. Then the BSA-AGE solution was dialyzed against 0.01M PBS (pH 7.4) to be removed of unreacted glucose. Fluorescence scanning (Exi/Em (395/460 nm)) and SDS-PAGE were used to check the formation of BSA-AGE, and protein concentration was determined by the Lowery method.
The tail collagen-coated 96 well microtiter plates were full-well treated with PBS (pH 7.4) for 1 hour to neutralize the acidic collagen. Then the plates were blocked with Superblock (PIERCE) at 37° C. for 1 hour, and washed with PBST (PBS-Tween) three times while shaking for 1 minute for each time of washing. AGE-BSA was diluted in PBS to a concentration required to obtain maximum cross-linking. 100 μl of the AGE-BSA solution was added to wells in the rows labeled as A, B, C, and D of the 96 well plates, and BSA solution of the same concentration was added to wells in the rows labeled as E, F, G, and H. The first three wells in each row were filled with PBS for the reagent blank. The plates were incubated at 37° C. for 4 hours to allow the collagen crosslink, and washed with PBST four times while shaking for 1 minute for each time of washing. Test compounds were diluted in PBS of pH 7.4. A test compound was added to quadruplicate AGE-BSA cross-links wells and quadruplicate BSA wells in an amount of 100 μl/well. PBS was added in an amount of 100 μl/well in the same way as non-breaking contrast. The plates were incubated at 37° C. for 16 hours and washed four times with PBST while shaking for 1 minute for each time of washing. 80 μl/well of Rabbit-anti-BSA antibody (1:500) was added to the wells and the plates were incubated at 37° C. for 50 minutes. After the plates were washed with PBST four times while shaking for 1 minute for each time of washing, 80 μl/well of horseradish peroxidase-labelled-goat-anti-rabbit IgG (1:1000) was added to the wells. The plates were incubated at 37° C. for 50 minutes, and then washed with PBST three times while shaking for 1 minute for each time of washing. 100 μl/well of TMB substrate (3,3′,5,5′-tetramethylbenzidine) was added to the wells. The plates were incubated at room temperature at dark place for 20 minutes. 2M H2SO4 was used to terminate the reaction. Within 10 minutes after the reaction, optical density was read at 450 nm on the BOBRAD Model 550 plate reader with the blank wells of the plates was set to 0.
The average optical density (OD) was calculated for each quadruplicate determination. […]

melting point [°C]	Structure (SMILES)	Breaking rate (decrease % in OD) ([1]; test compound 0.1 mmol/L) [%]	Breaking rate (decrease % in OD) ([1]; test compound 1 mmol/L) [%]
160 to 166	O=C(C[n+]1csc2c1CCCC2)OCc1ccccc1.[Br-] [Compound 4, 3-benzyloxycarbonylmethyl-4,5,6,7-tetrahydro-benzothiazole-3-bromide]	8.45 ± 5.35	7.17 ± 2.40
–	Cc1sc[n+](CC(=O)c2ccccc2)c1C.[Cl-] [ALT-711, reference compound]	13.4 ± 6.41	15.2 ± 8.43
217 to 218	Cc1csc[n+]1CC(=O)OCc1ccccc1.[Br-] [Compound 3, 3-benzyloxycarbonylmethyl-4-methyl-thiazole-3-bromide]	16.16 ± 7.07	26.46 ± 18.2
–	Cc1c(CCO)sc[n+]1CC(=O)OCc1ccccc1.[Br-] [Compound 2, 3-benzyloxycarbonylmethyl-5-(2-hydroxyethyl)-4-methyl-thiazole-3-bromide]	13.5 ± 9.53	13.25 ± 10.29
223 to 230	Cc1csc[n+]1CC(=O)O.[Br-] [Compound 5, 3-carboxymethyl-4-methyl-thiazole-3-bromide]	–	–
–	Cc1sc[n+](CC(=O)OCc2ccccc2)c1C.[Br-] [Compound 1, 3-benzyloxycarbonylmethyl-4,5-dimethyl-thiazole-3-bromide]	9.65 ± 3.55	10.81 ± 3.86
